Reference: patent publication US20260199510A1, “AN ANTIBODY-DRUG CONJUGATE HAVING TWO OR MORE FUNCTIONAL SMALL MOLECULE COMPOUNDS FOR ENHANCED TREATMENT OF REFRACTORY DISEASES” (priority 2023, published 2026)

Columns and labels:
Type in all cases: cell-based
[1] = test system: 22RV1 cells; assay: MTT assay of B7H3-ADCs against 22RV1 tumor cells; conditions: Homo sapiens, 6000 cells, 96 h incubation
[2] = test system: SW1990 cells; assay: MTT assay of BsHer2-ADCs against SW1990 cells; conditions: Homo sapiens, BsHer2 (trastuzumab/pertuzumab)-ADCs, 5000 cells, 96 h incubation
[3] = test system: MKN-7 cells; assay: MTT assay of BsHer2-ADCs against MKN-7 cells; conditions: Homo sapiens, BsHer2 (trastuzumab/pertuzumab)-ADCs, 5000 cells, 96 h incubation
[4] = test system: SU86.86 cells; assay: MTT assay of BsHer2-ADCs against SU86.86 cells; conditions: Homo sapiens, SU.86.86, BsHer2 (trastuzumab/pertuzumab)-ADCs, 5000 cells, 96 h incubation
[5] = test system: NCI-N87 cells; assay: MTT assay of BsHer2-ADCs against NCI-N87 cells; conditions: Homo sapiens, BsHer2 (trastuzumab/pertuzumab)-ADCs, 5000 cells, 96 h incubation
[6] = test system: PC3-4H7 cells; assay: MTT assay of B7H3-ADCs against PC3-4H7 tumor cells; conditions: 6000 cells, 96 h incubation
Excerpt: Parent cell line PC-3 from Nanjing Cobioer Biosciences Co., was introduced with plasmid coexpress both human PSMA and RFP-Neomycin fusion protein and plasmid coexpress human Steap1 and GFP-Blasticidin fusion protein. The high expression cells were selected by neomycin and Blasticidin, and the selected clone 4H7 having high expression of both PSMA and Steapl was verified by FACs and chosen for further use in vitro and in vivo study.
The cell lines used in the cytotoxicity assays were: C4-2B Cells which was obtained from ATCC through license agreement with MD Anderson Cancer Center, Houston, TX, USA. 22RV1, U87, NCI-N87, MKN-7, JIMT-1, SU86.86, SW1990, OVCAR-3, Calu-3, A431, AsPC-1, HCC827 and H1975 cells were purchased from ATCC, Nanjing Cobioer and The Cell Bank of Shanghai Institute of Biochemistry and Cell Biology, and the others. C4-2B and PC-3-4H7 are both Steap1 and PSMA antigen high express cells, but medium expressed of both B7H3 and DLL3 antigens. 22RV1 is low express cells for Steapl, PSMA, B7H3 and DLL3 antigens. U87 is glioblastoma (GBM) cells, NCI-N87 and MKN-7 cell line are stable models of the gastric epithelium. […] After it was shaken for 15 min, the absorbance was measured at 490 nm and 570 nm with a reference filter of 620 nm. The inhibition % was calculated according to the following equation: inhibition % =[1-(assay-blank)/(control-blank)]x 100.

[7] = test system: C4-2B cells; assay: MTT assay of B7H3-ADCs against C4-2B tumor cells; conditions: 6000 cells, 96 h incubation

IC50 [1]: 1.85 nM
IC50 [2]: 0.042 nM
IC50 [3]: 10.2 nM
IC50 [6]: 2.03 nM
IC50 [7]: 1.59 nM
SMILES: CC(=O)O[C@H]1C(=O)[C@@]2(C)[C@H]([C@H](OC(=O)c3ccccc3)[C@]3(O)C[C@H](OC(=O)[C@H](O)[C@@H](NC(=O)c4ccccc4)c4ccccc4)C(C)=C1C3(C)C)[C@]1(OC(C)=O)CO[C@@H]1C[C@@H]2O [Paclitaxel]
IC50 [4]: 2.98 nM
IC50 [5]: 0.76 nM
